Experimental data as given in US9458104B2 (priority 2012, dated 2016).

Assays:
[1] = molecular target: T1, RORγ ligand binding domain (LBD) (Homo sapiens, UniProt P51449); experiment: TR-FRET Activity Assay (ligand sensing assay, RORγ-LBD / coactivator peptide interaction); assay type: biochemical
T1 construct: made in house; host or cells: E. coli BL-21 (BL3), vector pDEST15
T1 sequence (P51449 269-508 limits assumed): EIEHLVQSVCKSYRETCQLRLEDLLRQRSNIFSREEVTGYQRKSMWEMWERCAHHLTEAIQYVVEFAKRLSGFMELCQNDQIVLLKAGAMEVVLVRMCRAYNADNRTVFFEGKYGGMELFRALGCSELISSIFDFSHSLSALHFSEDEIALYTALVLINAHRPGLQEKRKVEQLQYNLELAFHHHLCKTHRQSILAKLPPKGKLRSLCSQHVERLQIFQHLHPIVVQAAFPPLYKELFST
Outline: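 GST-RORγ LBD expressed in bacteria, 20–60 ng/well, with biotinylated coactivator peptide 200–600 nM, streptavidin-APC and Eu-anti-GST. Buffer: 20 mM Tris-HCl pH 6.8, 60 mM KCl, 1 mM DTT, 5 mM MgCl2, BSA; 1% DMSO. LANCE TR-FRET 665/615 nm ratio; IC50 from four-parameter logistic fit.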

RORγ = molecular target: T2, RORγ (UniProt P51449); assay type: cell-based; conditions: 293T cells, 16 h; for pIC50 (FF): firefly (FF) luciferase; for pIC50 (REN): renilla normalised (RENnorm) luciferase
T2 construct: hRORg-LBD|aa259-518|NP_005051.2; hRORgt|aa1-497|NP_001001523 (RORg, t isoform, 497aa); mRORg-LBD|aa264-516|NP_035411
T2 sequence (P51449 1-518): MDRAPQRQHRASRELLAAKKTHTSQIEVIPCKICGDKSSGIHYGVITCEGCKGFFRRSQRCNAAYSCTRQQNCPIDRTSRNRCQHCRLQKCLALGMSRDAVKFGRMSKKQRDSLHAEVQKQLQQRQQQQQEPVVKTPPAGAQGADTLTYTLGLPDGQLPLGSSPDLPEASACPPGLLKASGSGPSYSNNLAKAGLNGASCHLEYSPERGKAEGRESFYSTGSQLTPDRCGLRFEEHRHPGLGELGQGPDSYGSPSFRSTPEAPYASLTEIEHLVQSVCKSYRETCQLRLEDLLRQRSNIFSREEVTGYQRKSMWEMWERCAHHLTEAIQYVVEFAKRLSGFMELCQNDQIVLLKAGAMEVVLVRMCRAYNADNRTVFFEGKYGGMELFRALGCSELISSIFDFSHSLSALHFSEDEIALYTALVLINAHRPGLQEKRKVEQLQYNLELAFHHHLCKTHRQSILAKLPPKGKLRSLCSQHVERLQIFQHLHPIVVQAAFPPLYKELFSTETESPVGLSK

## Cc1c(C(=O)N[C@H]2C[C@H](C(=O)O)C2)cn(-c2cc(C(C)(C)C)cc(C3(C)CC3)c2)c1SC1CCCCC1 [Example 21, trans-3-(1-(3-(tert-Butyl)-5-(1-methylcyclopropyl)phenyl)-5-(cyclohexylthio)-4-methyl-1H-pyrrole-3-carboxamido)cyclobutanecarboxylic acid]
[1]
  IC50: 794 nM
RORγ
  pIC50 (FF): 8.0
  pIC50 (REN): 8.2

## CC(C)(O)c1cc(-c2cc(C(=O)N[C@H]3C[C@H](C(=O)O)C3)[nH]c2CC2CCCCC2)cc(C2(C)CC2)c1 [Example 17, trans-3-(5-(Cyclohexylmethyl)-4-(3-(2-hydroxypropan-2-yl)-5-(1-methylcyclopropyl)phenyl)-1H-pyrrole-2-carboxamido)cyclobutanecarboxylic acid]
[1]
  IC50: 1260 nM
RORγ
  pIC50 (FF): 6.4
  pIC50 (REN): 6.3

## CC(C)(C)c1cc(-c2cc(C(N)=O)[nH]c2CC2CCCCC2)cc(C(C)(C)C)c1 [Example 303, 5-(Cyclohexylmethyl)-4-(3,5-di-tert-butylphenyl)-1H-pyrrole-2-carboxamide]
[1]
  IC50: 501 nM
RORγ
  pIC50 (FF): < 4.7
  pIC50 (REN): < 4.7

## Cc1c(C(=O)N[C@H]2C[C@H](C(=O)O)C2)cn(-c2cc(C(C)(C)C)cc(C3(C)CC3)c2)c1CC1CCCCC1 [1/5]
[1]
  IC50: 1000 nM
RORγ
  pIC50 (FF): 7.6
  pIC50 (REN): 8.0

## Cc1c(C(=O)NC2CCOCC2)cn(-c2cc(C(C)(C)C)cc(C3(C)CC3)c2)c1C(O)C1CCCCC1 (stereo not drawn) [Example 15, 1-(3-(tert-Butyl)-5-(1-methylcyclopropyl)phenyl)-5-(cyclohexyl(hydroxy)methyl)-4-methyl-N-(tetrahydro-2H-pyran-4-yl)-1H-pyrrole-3-carboxamide]
[1]
  IC50: 631 nM
RORγ
  pIC50 (FF): 7.0
  pIC50 (REN): 7.0

## C[C@H](NC(=O)c1cc(-c2cc(C(=O)N[C@H]3C[C@H](C(=O)O)C3)n(C)c2CC2CCCCC2)cc(C2(C)CC2)c1)C(F)(F)F [8/17]
[1]
  IC50: 1000 nM
RORγ
  pIC50 (FF): 7.7
  pIC50 (REN): 7.9

## Cc1c(C(=O)NCCC(C)(C)C(=O)O)c(F)n(-c2ccc(S(=O)(=O)NC(C)(C)C)c(C(F)(F)F)c2)c1CC1CCCCC1 [Example 25, 4-(1-(4-(N-(tert-Butyl)sulfamoyl)-3-(trifluoromethyl)phenyl)-5-(cyclohexylmethyl)-2-fluoro-4-methyl-1H-pyrrole-3-carboxamido)-2,2-dimethylbutanoic acid]
[1]
  IC50: 631 nM
RORγ
  pIC50 (FF): 8.3
  pIC50 (REN): 8.3

## Cc1c(C(=O)NC2CCOCC2)cn(-c2cc(Br)cc(C(C)(C)C)c2)c1C=C1CCCCC1 [Example 2, 1-(3-Bromo-5-(tert-butyl)phenyl)-5-(cyclohexylidenemethyl)-4-methyl-N-(tetrahydro-2H-pyran-4-yl)-1H-pyrrole-3-carboxamide]
[1]
  IC50: 1260 nM
RORγ
  pIC50 (FF): 6.4
  pIC50 (REN): 6.5

## CC(C)(C)c1cc(-c2cc(C(=O)N[C@H]3C[C@H](C(=O)O)C3)nn2CC2CCCCC2)cc(C2(C)CC2)c1 [Example 100, (trans)-3-(5-(3-(tert-Butyl)-5-(1-methylcyclopropyl)phenyl)-1-(cyclohexylmethyl)-1H-pyrazole-3-carboxamido)cyclobutanecarboxylic acid]
[1]
  IC50: 501 nM
RORγ
  pIC50 (FF): 6.9
  pIC50 (REN): 7.0

## Cn1c(C(=O)NCC2(O)CCS(=O)(=O)CC2)cc(-c2ccc(S(=O)(=O)NC(C)(C)C)c3ccccc23)c1CC1CCCCC1 [8/5]
[1]
  IC50: 1000 nM
RORγ
  pIC50 (FF): 7.6
  pIC50 (REN): 7.6

## COC(c1c(C)c(C(=O)N[C@H]2C[C@H](C(=O)O)C2)cn1-c1cc(C(C)(C)C)cc(C2(C)CC2)c1)C1CCCCC1 (stereo partly drawn) [Example 14/1]
[1]
  IC50: 1580 nM
RORγ
  pIC50 (FF): 6.6
  pIC50 (REN): 6.6

## CC(C)(C)NS(=O)(=O)c1ccc(-c2cc(C(=O)NC3CCOCC3)nn2CC2CCCCC2)cc1C(C)(C)C [100/2]
[1]
  IC50: 794 nM
RORγ
  pIC50 (FF): 7.3
  pIC50 (REN): 7.4

## CC(C)(C)c1cc(-n2nc(C(=O)NCc3cnco3)c(Cl)c2CC2CCCCC2)cc(C(C)(C)C)c1 [103/7]
[1]
  IC50: 251 nM
RORγ
  pIC50 (FF): 6.3
  pIC50 (REN): 6.3

## CC(C)(C)c1cc(-c2nc(C(N)=O)nn2CC2CCCCC2)cc(C(C)(C)C)c1O [Example 306, 1-(Cyclohexylmethyl)-5-(3,5-di-tert-butyl-4-hydroxyphenyl)-1H-1,2,4-triazole-3-carboxamide]
[1]
  IC50: 794 nM
RORγ
  pIC50 (FF): 5.9
  pIC50 (REN): 6.0

## Cn1c(C(=O)NCC(C)(C)O)cc(-c2ccc(S(=O)(=O)NC(C)(C)C)c3ccccc23)c1CC1CCCCC1 [8/7]
[1]
  IC50: 501 nM
RORγ
  pIC50 (FF): 7.8
  pIC50 (REN): 7.9

## CC(C)(C)c1cc(-c2nc(C(=O)NC3CC3)nn2CC2CCCCC2)cc(C(C)(C)C)c1 [Example 307, 1-(Cyclohexylmethyl)-N-cyclopropyl-5-(3,5-di-tert-butylphenyl)-1H-1,2,4-triazole-3-carboxamide]
[1]
  IC50: 794 nM
RORγ
  pIC50 (FF): 5.9
  pIC50 (REN): 6.1

## Cc1c(C(=O)NCCC(C)(C)C(=O)O)cn(-c2ccc(S(=O)(=O)NC(C)(C)C)c(C(F)(F)F)c2)c1CC1CCCCC1 [Example 4, 4-(1-(4-(N-(tert-Butyl)sulfamoyl)-3-(trifluoromethyl)phenyl)-5-(cyclohexylmethyl)-4-methyl-1H-pyrrole-3-carboxamido)-2,2-dimethylbutanoic acid]
[1]
  IC50: 501 nM
RORγ
  pIC50 (FF): 7.7
  pIC50 (REN): 7.7

## Cc1c(C(=O)NCCC(C)(C)C(=O)O)cn(-c2cc(C(C)(C)C)cc(C3(C)CC3)c2)c1CC1CCCCC1 [1/4]
[1]
  IC50: 398 nM
RORγ
  pIC50 (FF): 7.2
  pIC50 (REN): 7.2

## CC(C)(C)c1cc(-c2nc(C(=O)NC3COC3)nn2CC2CCCCC2)cc(C(C)(C)C)c1O [308/3]
[1]
  IC50: 794 nM
RORγ
  pIC50 (FF): 6.3
  pIC50 (REN): 6.4

## CC(C)(C)NS(=O)(=O)c1ccc(-n2nc(C(=O)NC3CCOCC3)nc2CC2CCCCC2)cc1C(C)(C)C [Example 318/1]
[1]
  IC50: 2510 nM
RORγ
  pIC50 (FF): 6.2
  pIC50 (REN): 6.2

## CC(C)(C)c1cc(-c2cc(C(=O)N[C@H]3C[C@H](C(=O)O)C3)[nH]c2CC2CCCCC2)cc(C2(C)CC2)c1 [Example 17/1]
[1]
  IC50: 794 nM
RORγ
  pIC50 (FF): 7.0
  pIC50 (REN): 7.1

## Cc1c(C(=O)N[C@H]2C[C@H](C(=O)O)C2)cn(-c2cc(C(C)(C)C)cc(C3(C)CC3)c2)c1C(=O)c1ccccc1 [Example 301, (trans)-3-(5-Benzoyl-1-(3-(tert-butyl)-5-(1-methylcyclopropyl)phenyl)-4-methyl-1H-pyrrole-3-carboxamido)cyclobutanecarboxylic acid]
[1]
  IC50: 501 nM
RORγ
  pIC50 (FF): 6.7
  pIC50 (REN): 6.8

## Cn1c(C(=O)NC2CCOCC2)cc(CC2CCCCC2)c1-c1cc(C(C)(C)C)cc(C2(C)CC2)c1 [19/2]
[1]
  IC50: 501 nM
RORγ
  pIC50 (FF): 6.9
  pIC50 (REN): 6.9

## Cc1c(C(=O)NC2CCOCC2)cn(-c2ccc(S(=O)(=O)NC(C)(C)C)c(C(F)(F)F)c2)c1CC1CCCCC1 [4/3]
[1]
  IC50: 398 nM
RORγ
  pIC50 (FF): 7.6
  pIC50 (REN): 7.6

## Cc1c(C(=O)N[C@H]2C[C@H](C(=O)O)C2)cn(-c2ccc(S(=O)(=O)NC(C)(C)C)c(C(C)(C)C)c2)c1CC1CCCCC1 [Example 4/1]
[1]
  IC50: 1260 nM
RORγ
  pIC50 (FF): 7.2
  pIC50 (REN): 7.3

## CC(C)(C)c1cc(-n2nc(C(=O)NCc3ccn[nH]3)c(Cl)c2CC2CCCCC2)cc(C(C)(C)C)c1 [103/8]
[1]
  IC50: 794 nM
RORγ
  pIC50 (FF): < 4.7
  pIC50 (REN): < 4.7

## CC(C)(C)NS(=O)(=O)c1ccc(-c2cc(C(=O)NC3CCS(=O)(=O)CC3)nn2CC2CCCCC2)c(Cl)c1Cl [Example 112/1]
[1]
  IC50: 501 nM
RORγ
  pIC50 (FF): 7.5
  pIC50 (REN): 7.6

## CC(C)(C)NS(=O)(=O)c1ccc(-c2cc(C(=O)NC34CCC(C(=O)O)(CC3)CC4)nn2CC2CCCCC2)c(Cl)c1Cl [112/2]
[1]
  IC50: 794 nM
RORγ
  pIC50 (FF): 6.9
  pIC50 (REN): 7.0

## CC(C)(C)c1cc(-n2nc(C(=O)NC3CCOCC3)c(Cl)c2CC2CCCCC2)cc(C(C)(C)C)c1 [103/2]
[1]
  IC50: 316 nM
RORγ
  pIC50 (FF): 6.3
  pIC50 (REN): 6.4

## Cn1c(C(=O)NC23CCC(C(=O)O)(CC2)C3)cc(-c2cc(C(C)(C)C)cc(C3(C)CC3)c2)c1CC1CCCCC1 [8/12]
[1]
  IC50: 1000 nM
RORγ
  pIC50 (FF): 7.7
  pIC50 (REN): 7.8
